Results published in patent US20070264411A1, “PROCESS OF PRODUCING A CAPSINOID-CONTAINING FOOD AND DRINK” (AJINOMOTO CO., INC., priority 2006, published 2007).

Columns and labels:
Format in all cases: physicochemical
[1] = Storage stability of diluted dihydrocapsiate emulsion with added emulsifier DECAGLYN 1-O (HPLC capsinoid content)
Experimental: A dihydrocapsiate emulsion composition was prepared according to the method described in Example 1 of JP Patent Kokai Publication No. JP-P2003-192576A. Briefly, decaglycerin monooleate (Nikko Chemical Co.; trade name, DECAGLYN 1-O) (21 g), glycerin (193 g) and water (26 g) were mixed, dissolved under heating at 90-95° C., and cooled to 30° C. Synthetic dihydrocapsiate (8.5 g) and sucrose acetate isobutyrate (SAIB) (51 g) were added and dissolved under heating at 85-90° C., and the mixture was emulsified at 30-90° C. to prepare a capsinoid-containing emulsion composition (pH 3.6). The resulting emulsion composition was diluted with up to 1000 parts of 0.01M citrate buffer (pH 3.5) supplemented with sucrose to obtain an additive-free sample. On the other hand, the composition was diluted with up to 1000 parts of 0.01M citrate buffer (pH 3.5) supplemented with sucrose to which was added 0.014%, 0.114% emulsifier (Nikko Chemical Co.; DECAGLYN 1-0) respectively, to prepare emulsion-supplemented samples. The resulting samples were sterilized by heating for 20 minutes at 44° C. and stored.
Every one week after storage, the capsinoid content was determined. Analysis of the capsinoid content was performed by high performance liquid chromatography (HPLC) after dilution with an ethyl acetate/methanol (6:4) mixture.

[2] = Storage stability of diluted dihydrocapsiate emulsion with a variety of high molecular weight components added; conditions: 500 parts dilution, FIG. 3
Experimental: In the same manner as in Example 2, a dihydrocapsiate containing emulsion composition was diluted with up to 500 parts of 0.01M citrate buffer (pH 3.5) supplemented with sucrose and the stability of storage was evaluated. Prior to addition of the dihydrocapsiate containing emulsion composition 8 types of high molecular weight components were added to 0.01M citrate buffer (pH 3.5) supplemented with sucrose, and the difference of the stability as a function of the high molecular weight components added was evaluated. […] In regard to the amount of high molecular weight component to be added, xanthan gum was reduced to 0.1% because it gives high viscosity in a small quantity. The amount of other high molecular weight components added than xanthan gum was fixed at 0.5%.

[3] = Storage stability of diluted dihydrocapsiate emulsion with a variety of emulsifiers added; conditions: 8 emulsifiers of Table 1 other than DECAGLYN 1-O, each at 0.114% in 0.01M citrate buffer (pH 3.5) with sucrose; 1000 parts dilution; FIG. 2
Experimental: In the same manner as in Example 1, a dihydrocapsiate containing emulsion composition was diluted with up to 1000 parts of 0.01M citrate buffer (pH 3.5) supplemented with sucrose and the stability of storage was evaluated. Prior to addition of the dihydrocapsiate containing emulsion composition 8 types of emulsifiers were added to 0.01M citrate buffer (pH 3.5) supplemented with sucrose so as to be 0.114%, and the difference of the stability as a function of the emulsifier added was evaluated.

[4] = Storage stability of dihydrocapsiate emulsion mixed with emulsifier in advance or diluted with emulsifier-containing buffer; conditions: stored at 24° C. and 44° C.
Experimental: Into a capsinoid emulsion composition prepared in Example 1 an emulsifier (Nikko Chemical Co., Decaglyn 1-O) was blended at a ratio of 10 to 3 under heating (50-70° C.) to prepare a composition. The resulting composition was diluted with up to 230 parts of 0.01M citrate buffer (pH 3.5) supplemented with sucrose to prepare a mixture of the emulsion composition and the emulsifier. On the other hand, an additive-free sample prepared by diluting the capsinoid emulsion composition (prepared in Example 1) with up to 300 parts of the same buffer was diluted with up to 300 parts of 0.01M citrate buffer (pH 3.5) supplemented with sucrose to which was added an emulsifier (Nikko Chemical Co., DECAGLYN 1-0) in advance at a rate of 0.10%, to prepare a sample containing an emulsifier. In either sample, the content of capsinoid after dilution with the buffer correspond to 0.33% of the initial amount of capsinoid existing in the emulsion composition. Thus prepared samples were sterilized under heat for 20 minutes and stored at 24° C. and 44° C.
In periodical sampling, the content of capsinoid was determined. The content of capsinoid was analyzed by high performance liquid chromatography (HPLC) after dilution with a mixture of ethyl acetate and methanol (6:4).

rate of residual dihydrocapsiate relative to emulsifier-free case ([1]; 0.114% emulsifier (DECAGLYN 1-O) added, about one month after storage, citrate buffer pH 3.5) | storage stability of dihydrocapsiate ([2]; HM pectin 0.5% in 0.01M citrate buffer (pH 3.5) with sucrose) | storage stability of dihydrocapsiate ([2]; carboxymethylcellulose sodium (CMC sodium) 0.5% in 0.01M citrate buffer (pH 3.5) with sucrose) | storage stability of dihydrocapsiate ([2]; carrageenan 0.5% in 0.01M citrate buffer (pH 3.5) with sucrose) | stability of dihydrocapsiate during storage [3] | storage stability of dihydrocapsiate ([4]; FIG. 4A: emulsion composition diluted up to 300 parts with buffer to which 0.10% DECAGLYN 1-O was previously added) | storage stability of dihydrocapsiate ([4]; FIG. 4B: emulsion composition pre-blended with Decaglyn 1-O (10 to 3), diluted up to 230 parts with buffer containing no emulsifier) | Compound | storage stability of dihydrocapsiate ([1]; emulsion composition diluted up to 1000 parts with 0.01M citrate buffer (pH 3.5) with sucrose, 0.014% or 0.114% DECAGLYN 1-O added vs additive-free, FIG. 1)
 |  |  |  |  |  |  | dihydrocapsiate | increased with increase of the amount of emulsifier added
≥ 2 times | Improvement of the storage stability | Improvement of the storage stability | Improvement of the storage stability | improve the stability | improves the storage stability | improves the storage stability | COc1cc(COC(=O)CCCCCCC(C)C)ccc1O [dihydrocapsiate] | 
